{
  "source": "ChEMBL document CHEMBL1130842",
  "about": "“Synthesis and in vitro cytotoxicity of lipophilic platinum(II) complexes” (Bioorg Med Chem Lett, 1998)",
  "type_in_all_cases": "functional, cell-based",
  "key": {"E39": {"tested_on": "E39", "test": "Cytotoxicity was evaluated against renal E39 cell-line by MTT assay", "details": "Homo sapiens"}, "P388": {"tested_on": "P388", "test": "Cytotoxicity was evaluated against leukemia P388 cell-line by MTT assay", "details": "Mus musculus"}, "Lung NSCLC-N6 cell-line": {"tested_on": "Lung NSCLC-N6 cell-line", "test": "Cytotoxicity was evaluated against lung NSCLC-N6 cell-line by MTT assay", "details": "Homo sapiens"}, "M96": {"tested_on": "M96", "test": "Cytotoxicity was evaluated against melanoma M96 cell-line by MTT assay", "details": "Homo sapiens"}},
  "data": [
    {"smiles": "CCCCCCCCCCCCCCC(N)CN", "note": "(centres undefined)", "values": [
      {"measurement": "IC50", "setting": "E39", "result": 5.3, "unit": "mg/L"},
      {"measurement": "IC50", "setting": "P388", "result": 0.1, "unit": "mg/L"},
      {"measurement": "IC50", "setting": "Lung NSCLC-N6 cell-line", "result": 1.1, "unit": "mg/L"},
      {"measurement": "IC50", "setting": "M96", "result": 7.8, "unit": "mg/L"}
    ]}
  ]
}
